“And” between values parts separate entries of the source, which are not always exact repeats. Equal entries are not always repeated.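 Following 48 hours of exposure in 96-well plates, responses at five concentrations were used to interpolate endpoints linearly. The concentration for 50% growth inhibition is given as GI50. TGI marks complete inhibition of growth.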
Legend:
Test in all cases: DTP human tumour cell line panel, 48 h
[1] = system: SF-539 CNS
[2] = system: RPMI-8226 leukemia
[3] = system: NCI-H226 lung
[4] = system: NCI-H23 lung
[5] = system: OVCAR-4 ovarian
[6] = system: LOX IMVI melanoma
[7] = system: SNB-75 CNS
[8] = system: M14 melanoma
[9] = system: MALME-3M melanoma
[10] = system: NCI/ADR-RES ovarian

Row | SMILES | GI50 [1] [µM] | TGI [1] [µM] | TGI [2] [µM] | TGI [3] [µM] | GI50 [4] [µM] | TGI [4] [µM] | GI50 [5] [µM] | TGI [5] [µM] | GI50 [6] [µM] | TGI [6] [µM] | GI50 [7] [µM] | TGI [7] | GI50 [8] [µM] | TGI [8] [µM] | GI50 [9] [µM] | TGI [9] [µM] | GI50 [10] [µM] | TGI [10] [µM] | GI50 [3] [µM] | GI50 [2] [µM]
1 | COc1cc(C(C)c2cc3c(cc2OCCOCCOc2cc4c(cc2C(C)c2cc(OC)c(OC)c(OC)c2)OCO4)OCO3)cc(OC)c1OC (configuration not stated) | > 100 | > 100 | > 100 | > 10 | > 100 | > 100 | > 100 | > 100 | > 100 | > 100 | > 10 | > 10 µM and 74.8 µM | > 100 | > 100 | > 100 | > 100 | – | – | – | –
2 | O=S(O)CCCCSSCCCCS(=O)(O)=S | – | > 100 | – | – | – | > 100 | – | 79 | – | > 100 | – | 92.1 µM | – | 32.1 | – | > 100 | – | – | – | –
3 | COc1ccc(/C=C2/CCOC2=O)cc1 | > 100 | > 100 | – | > 100 | > 100 | > 100 | > 100 | > 100 | > 100 | > 100 | > 100 | > 100 µM | > 100 | > 100 | > 100 | > 100 | > 100 | > 100 | > 100 | –
4 | COc1ccc2c(CCNS(=O)(=O)c3ccccc3)c(C(C)=O)[nH]c2c1[N+](=O)[O-] | – | 77.7 | > 100 | > 100 | – | > 100 | – | > 100 | – | > 100 | – | – | – | > 100 | – | – | – | – | – | –
5 | O=C(O)c1cc2c3c(c1)[C@H]1C=CC[C@H]1CN3CC1CC=CC21 (some centres not stated) | – | > 100 | > 100 | > 100 | – | > 100 | – | > 100 | – | > 100 | – | > 100 µM | – | > 100 | – | > 100 | – | – | – | –
6 | CC(=O)N1C(=O)C(=O)c2cc(Cl)ccc21 | – | > 100 | > 100 | > 100 | – | > 100 | – | > 100 | – | > 100 | – | > 100 µM | – | > 100 | – | > 100 | – | – | – | –
7 | CCC(=O)[O-].CCC(=O)[O-].N.N.N.N.[Co+3].[O-][Cl+3]([O-])([O-])[O-] | > 100 | > 100 | > 100 | – | > 100 | > 100 | > 100 | > 100 | > 100 | > 100 | > 100 | > 100 µM | > 100 | > 100 | > 100 | > 100 | – | – | – | > 100
8 | CC(C)c1cccc2sc(NC(=O)C(=O)CC(=O)c3ccc(F)cc3)nc12 | – | > 100 | > 100 | > 100 | – | > 100 | – | > 100 | – | > 100 | – | > 100 µM | – | > 100 | – | > 100 | – | – | – | –
9 | COc1ccc2c3c([nH]c2c1[N+](=O)[O-])C(C)N(C(=O)/C=C/c1ccccc1)CC3 (configuration not stated) | – | 23.2 | 9.66 | 41.3 | – | > 100 | – | > 100 | – | 42.6 | – | – | – | > 100 | – | – | – | – | – | –
10 | CP(=O)(CCSc1ccccc1)c1ccccc1 (configuration not stated) | – | > 100 | > 100 | > 100 | – | > 100 | – | > 100 | – | > 100 | – | > 100 µM | – | > 100 | – | > 100 | – | – | – | –
11 | C/C(CC(=O)Nc1ccc(C)cc1)=N\NC(N)=S | – | > 100 | > 100 | > 100 | – | > 100 | – | – | – | > 100 | – | > 100 µM | – | > 100 | – | > 100 | – | – | – | –
12 | CC1=C(CC/C(C)=C/CCC2(C)CCC([C@H](C)C(=O)O)OO2)C(C)(C)CCC1 (some centres not stated) (tested in a mixture with another compound) | – | > 100 | – | > 100 | – | > 100 | – | > 100 | – | > 100 | – | > 100 µM | – | > 100 | – | > 100 | – | – | – | –
13 | CC(=O)c1ccc(NCn2nc(-c3ccccc3O)oc2=S)cc1 | – | – | – | 99.3 | 92.6 | > 100 | – | – | 22.7 | 45.5 | – | – | > 100 | > 100 | – | – | > 100 | > 100 | 27.4 | –
14 | CC(=O)C1C(=O)C(=O)N(c2ccc(Cl)cc2C)C1=O (configuration not stated) | – | > 100 | – | – | – | > 100 | – | > 100 | – | – | – | – | – | > 100 | – | > 100 | – | – | – | –
15 | NC(N)=NS(=O)(=O)c1ccc(NC(=O)c2ccc(Cl)c3c(Nc4ccc(S(=O)(=O)N=C(N)N)cc4)c4ccccc4nc23)cc1 | – | > 100 | > 100 | – | – | > 100 | – | > 100 | – | > 100 | – | 98.5 µM | – | > 100 | – | > 100 | – | – | – | –
16 | CN1NC(c2ccccc2)=C(C#N)C(=O)CC1c1ccccc1Cl (configuration not stated) | – | – | > 100 | > 100 | – | > 100 | – | > 100 | – | > 100 | – | > 100 µM | – | > 100 | – | > 100 | – | – | – | –
17 | CCCCCCCCCCSS(=O)(=O)c1ccc(C)cc1 | – | 3.67 | 29.6 | 37.3 | – | 35.4 | – | 32 | – | 15.7 | – | 5.22 µM | – | 25 | – | 31.3 | – | – | – | –
18 | CCC1(c2ccncc2)CCC(=O)NC1=O (configuration not stated) | – | > 100 | > 100 | > 100 | – | > 100 | – | > 100 | – | > 100 | – | > 100 µM | – | > 100 | – | > 100 | – | – | – | –
19 | CCOc1ccccc1N=C(NC(=O)CC)SC | > 100 | > 100 | > 100 | > 100 | > 10 | > 100 | > 10 | > 100 | > 100 | > 100 | > 10 | > 100 µM | > 100 | > 100 | > 10 | > 100 | – | – | > 100 | > 10
20 | CN1C(=O)NC2(O)c3ccccc3C(=O)C12O (configuration not stated) | – | – | > 100 | – | – | > 100 | – | > 100 | – | > 100 | – | > 100 µM | – | > 100 | – | > 100 | – | – | – | –
